From ChEMBL document CHEMBL1137401, “Structure-activity relationship studies on a novel series of (S)-2beta-substituted 3alpha-[bis(4-fluoro- or 4-chlorophenyl)methoxy]tropane analogues for in vivo investigation” (J Med Chem, 2006)
Active and inactive are the calls of the source. The calls are words filed in the database; no cut-off is given here.

How the values were obtained:
[1] = molecular target: Norepinephrine transporter (Rattus norvegicus, UniProt Q9WTR4); assay: Displacement of [3H]nisoxetine from NET in Sprague-Dawley rat brain; format: tissue-based
Rattus norvegicus [2] = organism: Rattus norvegicus; assay: Selectivity for Sprague-Dawley rat DAT over rat M1 receptor
[3] = molecular target: T1, Sodium-dependent dopamine transporter (Rattus norvegicus, UniProt P23977); assay: biochemical; format: tissue-based, Sprague-Dawley, Brain
Description: Displacement of [3H]WIN-35428 from DAT in Sprague-Dawley rat brain

[4] = molecular target: T2, Muscarinic acetylcholine receptor M1 (Rattus norvegicus, UniProt P08482); assay: Displacement of [3H]pirenzepine from M1 receptor in Sprague-Dawley rat brain
T2 sequence (P08482 whole entry): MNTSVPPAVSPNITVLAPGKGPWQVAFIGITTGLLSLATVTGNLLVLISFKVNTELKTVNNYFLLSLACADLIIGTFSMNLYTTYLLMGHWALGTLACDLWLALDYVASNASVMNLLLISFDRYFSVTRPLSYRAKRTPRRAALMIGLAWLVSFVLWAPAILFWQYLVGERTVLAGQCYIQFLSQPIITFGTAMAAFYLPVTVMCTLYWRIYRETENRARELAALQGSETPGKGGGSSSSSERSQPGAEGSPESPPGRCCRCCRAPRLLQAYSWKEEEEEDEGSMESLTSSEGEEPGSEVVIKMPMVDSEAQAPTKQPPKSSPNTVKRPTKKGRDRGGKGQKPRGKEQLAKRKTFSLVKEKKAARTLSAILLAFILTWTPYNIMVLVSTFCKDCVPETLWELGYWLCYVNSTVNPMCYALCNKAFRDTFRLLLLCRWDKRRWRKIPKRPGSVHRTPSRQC

[5] = molecular target: Sodium-dependent serotonin transporter (Rattus norvegicus, UniProt P31652); assay: Displacement of [3H]citalopram from SERT in Sprague-Dawley rat brain; format: tissue-based
[6] = molecular target: T1, Sodium-dependent dopamine transporter; assay: Inhibition of [3H]dopamine uptake at DAT in Sprague-Dawley rat brain
Rattus norvegicus [7] = organism: Rattus norvegicus; assay: Drug discriminative activity in Sprague-Dawley rat measured as response on cocaine-appropriate lever; format: functional

Chain of Sodium-dependent serotonin transporter (P31652 whole entry): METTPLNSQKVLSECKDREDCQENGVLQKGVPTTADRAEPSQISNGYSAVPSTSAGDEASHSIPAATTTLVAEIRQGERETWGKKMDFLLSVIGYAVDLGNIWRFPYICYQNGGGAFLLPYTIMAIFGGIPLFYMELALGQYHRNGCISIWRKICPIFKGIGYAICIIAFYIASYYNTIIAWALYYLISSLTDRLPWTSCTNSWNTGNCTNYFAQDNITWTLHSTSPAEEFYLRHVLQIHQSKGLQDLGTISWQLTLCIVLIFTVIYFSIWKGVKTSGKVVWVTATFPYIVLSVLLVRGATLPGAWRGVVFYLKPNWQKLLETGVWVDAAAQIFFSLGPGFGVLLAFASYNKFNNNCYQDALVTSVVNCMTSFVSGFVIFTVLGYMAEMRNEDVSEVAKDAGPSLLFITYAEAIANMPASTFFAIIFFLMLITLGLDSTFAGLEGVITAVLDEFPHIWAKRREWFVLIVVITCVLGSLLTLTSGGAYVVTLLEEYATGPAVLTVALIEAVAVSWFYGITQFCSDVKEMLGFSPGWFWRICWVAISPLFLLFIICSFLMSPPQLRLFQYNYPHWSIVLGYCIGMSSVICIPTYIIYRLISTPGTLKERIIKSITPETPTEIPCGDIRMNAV
Chain of Norepinephrine transporter (Q9WTR4 whole entry): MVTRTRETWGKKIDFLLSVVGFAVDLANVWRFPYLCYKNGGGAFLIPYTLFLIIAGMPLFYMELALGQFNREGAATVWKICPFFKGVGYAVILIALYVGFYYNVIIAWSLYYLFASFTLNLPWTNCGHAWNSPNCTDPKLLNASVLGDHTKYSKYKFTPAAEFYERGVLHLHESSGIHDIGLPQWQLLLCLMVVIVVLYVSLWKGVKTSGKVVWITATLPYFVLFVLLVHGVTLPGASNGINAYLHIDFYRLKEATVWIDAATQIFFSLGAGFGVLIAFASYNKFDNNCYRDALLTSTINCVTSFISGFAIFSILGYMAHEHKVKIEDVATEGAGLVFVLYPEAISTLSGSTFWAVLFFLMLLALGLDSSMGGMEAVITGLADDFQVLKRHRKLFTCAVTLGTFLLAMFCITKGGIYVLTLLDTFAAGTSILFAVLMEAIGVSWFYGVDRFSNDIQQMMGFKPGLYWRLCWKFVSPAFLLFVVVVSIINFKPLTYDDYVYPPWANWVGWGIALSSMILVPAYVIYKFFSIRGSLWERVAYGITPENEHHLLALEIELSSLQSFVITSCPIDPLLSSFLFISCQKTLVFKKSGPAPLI
T1 sequence (P23977 whole entry): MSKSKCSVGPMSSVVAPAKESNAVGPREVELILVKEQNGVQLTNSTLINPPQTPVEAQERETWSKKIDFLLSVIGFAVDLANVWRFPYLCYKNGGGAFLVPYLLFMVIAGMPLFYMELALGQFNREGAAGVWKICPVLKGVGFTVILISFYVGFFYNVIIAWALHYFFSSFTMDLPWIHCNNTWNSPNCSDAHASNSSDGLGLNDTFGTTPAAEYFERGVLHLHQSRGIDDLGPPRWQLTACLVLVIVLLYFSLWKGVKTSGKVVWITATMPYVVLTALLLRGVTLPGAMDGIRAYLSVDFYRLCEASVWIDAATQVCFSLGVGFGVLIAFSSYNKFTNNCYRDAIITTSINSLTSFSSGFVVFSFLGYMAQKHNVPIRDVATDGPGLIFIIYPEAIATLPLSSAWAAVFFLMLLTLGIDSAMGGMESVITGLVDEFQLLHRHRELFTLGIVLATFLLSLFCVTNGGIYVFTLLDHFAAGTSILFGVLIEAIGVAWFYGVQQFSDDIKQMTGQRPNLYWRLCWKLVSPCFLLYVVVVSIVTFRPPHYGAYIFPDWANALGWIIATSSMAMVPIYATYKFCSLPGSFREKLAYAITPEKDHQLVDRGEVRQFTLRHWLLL

## CN1C2CCC1[C@@H](CO)[C@@H](OC(c1ccc(F)cc1)c1ccc(F)cc1)C2 (stereo partly specified)
[1]
  Ki: 983 nM
Rattus norvegicus [2]
  Ratio Ki: 31
[3]
  Ki: 3.4 nM

## COC(=O)[C@@H]1C2CCC(C[C@@H]1OC(c1ccc(Cl)cc1)c1ccc(Cl)cc1)N2C (stereo partly specified)
[4]
  Ki: 382 nM
[1]
  Ki: 2150 nM
[5]
  Ki: 528 nM
Rattus norvegicus [2]
  Ratio Ki: 30
[3]
  Ki: 12.6 nM
[6]
  IC50: 2.46 nM

## CCOC(=O)[C@@H]1C2CCC(C[C@@H]1OC(c1ccc(F)cc1)c1ccc(F)cc1)N2 (stereo partly specified)
[1]
  Ki: 563 nM
Rattus norvegicus [2]
  Ratio Ki: 1930

## COC(=O)[C@@H]1C2CCC(C[C@@H]1OC(c1ccc(F)cc1)c1ccc(F)cc1)N2C (stereo partly specified)
Rattus norvegicus [2]
  Ratio Ki: 45

## CN1C2CCC1CC(OC(c1ccc(F)cc1)c1ccc(F)cc1)C2 (stereo unspecified) [DIFLUOROBENZTROPINE]
Rattus norvegicus [7]
  Activity: 65%

## C=CCN1C2CCC1[C@@H](C(=O)OCC)[C@@H](OC(c1ccc(F)cc1)c1ccc(F)cc1)C2 (stereo partly specified)
[1]
  Ki: 935 nM
Rattus norvegicus [2]
  Ratio Ki: 1040

## CCOC(=O)[C@@H]1C2CCC(C[C@@H]1OC(c1ccc(Cl)cc1)c1ccc(Cl)cc1)N2C (stereo partly specified)
[4]
  Ki: 3060 nM
[1]
  Ki: 3350 nM
[5]
  Ki: 1560 nM
[3]
  Ki: 14.6 nM
[6]
  IC50: 1.52 nM

## CCCCN1C2CCC1[C@@H](C(=O)OCC)[C@@H](OC(c1ccc(F)cc1)c1ccc(F)cc1)C2 (stereo partly specified)
[1]
  Ki: 580 nM
Rattus norvegicus [2]
  Ratio Ki: 391

## COC(=O)C1C(OC(c2ccc(Cl)cc2)c2ccc(Cl)cc2)CC2CCC1N2C (racemic)
Rattus norvegicus [7]
  Activity: inactive

## CN1C2CCC1[C@@H](COC(=O)CCCc1ccc(N)cc1)[C@@H](OC(c1ccc(F)cc1)c1ccc(F)cc1)C2 (stereo partly specified)
[1]
  Ki: 440 nM
Rattus norvegicus [2]
  Ratio Ki: 12

## COC(=O)/C=C/[C@@H]1C2CCC(C[C@@H]1OC(c1ccc(F)cc1)c1ccc(F)cc1)N2C (stereo partly specified)
[1]
  Ki: 269 nM
Rattus norvegicus [2]
  Ratio Ki: 294

## CN1C2CCC1[C@@H](COC(=O)CCCc1ccc([N+](=O)[O-])cc1)[C@@H](OC(c1ccc(F)cc1)c1ccc(F)cc1)C2 (stereo partly specified)
[4]
  Ki: 708 nM
[1]
  Ki: 2130 nM
[5]
  Ki: 3780 nM
Rattus norvegicus [2]
  Ratio Ki: 18

## C=C[C@@H]1C2CCC(C[C@@H]1OC(c1ccc(F)cc1)c1ccc(F)cc1)N2C (stereo partly specified)
[1]
  Ki: 473 nM
Rattus norvegicus [2]
  Ratio Ki: 90

## COC(=O)CC[C@@H]1C2CCC(C[C@@H]1OC(c1ccc(F)cc1)c1ccc(F)cc1)N2C (stereo partly specified)
[1]
  Ki: 454 nM
Rattus norvegicus [2]
  Ratio Ki: 832

## CCOC(=O)[C@@H]1C2CCC(C[C@@H]1OC(c1ccc(F)cc1)c1ccc(F)cc1)N2C (stereo partly specified)
Rattus norvegicus [2]
  Ratio Ki: 275
